According to patent publication US20230322753A1, “HETEROARYL DERIVATIVE, METHOD FOR PREPARATION THEREOF, AND PHARMACEUTICAL COMPOSITION COMPRISING SAME AS ACTIVE INGREDIENT” (VORONOI INC., priority 2020, published 2023):

What was measured:
Format in all cases: cell-based
Conditions in all cases: Mus musculus, BaF3, 72 hours, CellTiter-Glo
[1] = tested on: Ba/F3 cells expressing EGFR Exon20 ins NPH; assay: Ba/F3 proliferation suppression activity, cells expressing EGFR Exon20 ins NPH
Method: A following experiment was carried out to evaluate the suppression activity of the compounds according to the present invention against the proliferation of Ba/F3 which expresses EGFR mutations.
(§1) For the Ba/F3 cells, a RPMI-1640 medium containing 10% FBS and 5 ng/ml IL-3 (R&D Systems) was used. The transduced Ba/F3 cells were cultured in a medium, which is same as the above medium, but 1 ug/ml puromycin (Invitrogen) was additionally added to.
(§2) 24 hours before the treatment of the cells with the compounds, 3000 to 5000 cells were distributed into each well of a white clear bottom 96 well plate (Corning). The compounds were diluted in a dimethyl sulfoxide (e.g. dilution ratio of 3:1 and total 12 concentrations) and then injected by 0.5 ul respectively, such that a final concentration amounted to 0.3 nM to 50 uM. 72 hours after the treatment with the compounds, the measurement of live cells was made in such way that these cells were stored for 10 minutes at a room temperature using a CellTiter-Glo luminescent cell-viability reagent (Promega) and then their luminescence intensities were measured using a reader (i.e. Synergy Neo, Biotek). Each test was repeated three times.
(§3) resulting values were calculated as a cell growth ratio (%) compared to a control. Then, the graphs were drawn and the […] values were calculated by using a program, GraphPad Prism version 5.0.

[2] = tested on: Ba/F3 cells expressing HER2 WT; assay: Ba/F3 proliferation suppression activity, cells expressing ErbB2 (HER2) wild type
Method: as §1, §2, §3

[3] = tested on: Ba/F3 cells expressing HER2 YVMA Exon 20ins; assay: Ba/F3 proliferation suppression activity, cells expressing HER2 YVMA Exon 20ins
Method: as §1, §2, §3

Row | SMILES | GI50 [1] [nM] | GI50 [2] [nM] | GI50 [3] [nM]
1 | C=CC(=O)Nc1cc(Nc2cc(N3OCC[C@@H]3c3ccc(F)c(C(F)(F)F)c3)ncn2)c(OC)cc1N1CCC(N2CCN(C3CC3)[C@@H](C)C2)CC1 [Compound 52] | < 50 | < 50 | < 50
2 | C=CC(=O)Nc1cc(Nc2cc(N3OCC[C@@H]3c3cccc(C(F)(F)F)c3F)ncn2)c(OC)cc1N(C)CCN(C)C [Compound 61] | < 50 | – | < 50
3 | C=CCN1CCN(c2cc(OC)c(Nc3cc(N4OCC[C@@H]4c4ccc(F)c(C(F)(F)F)c4)ncn3)cc2NC(=O)C=C)CC1 [Compound 41] | < 50 | < 50 | < 50
4 | C=CC(=O)Nc1cc(Nc2cc(N3OCC[C@@H]3c3ccc(F)c(C(F)(F)F)c3)ncn2)c(OC)cc1N1CCC(N2CCN(C3CC3)[C@H](C)C2)CC1 [Compound 53] | < 50 | – | < 50
5 | C=CC(=O)Nc1cc(Nc2cc(N3OCC[C@@H]3c3ccc(F)c(C(F)(F)F)c3)ncn2)c(OC)cc1N1CCO[C@H](C)C1 [Compound 57] | 50 to 500 | – | –
6 | C=CC(=O)Nc1cc(Nc2cc(N3OCC[C@@H]3c3cccc(C(F)(F)F)c3F)ncn2)c(OC)cc1N(C)CCNC [Compound 87] | < 50 | – | –
7 | C=CC(=O)Nc1cc(Nc2cc(N3OCC[C@@H]3c3cccc(C(F)(F)F)c3)ncn2)c(OC)cc1N1CCCN(C)CC1 [Compound 26] | < 50 | – | –
8 | C=CC(=O)Nc1cc(Nc2cc(N3OCC[C@@H]3c3cccc(C(F)(F)F)c3)ncn2)c(OC)cc1N1CCN(CC2CC2)CC1 [Compound 25] | < 50 | – | –
9 | C=CC(=O)Nc1cc(Nc2cc(N3OCC[C@@H]3c3ccc(Cl)c(C(F)(F)F)c3)ncn2)c(OC)cc1N1CCC(N(C)C)CC1 [Compound 35] | 50 to 500 | – | –
10 | C=CC(=O)Nc1cc(Nc2cc(N3OCC[C@@H]3c3cc(F)cc(F)c3)ccn2)c(OC)cc1N(C)CCN(C)C [Compound 99] | 50 to 500 | – | –
11 | C=CC(=O)Nc1cc(Nc2cc(N3OCC[C@@H]3c3cccc(C(F)(F)F)c3F)ncn2)c(OC)cc1N1CCC(N2CCN(C(C)=O)CC2)CC1 [Compound 91] | 50 to 500 | – | –
12 | C=CC(=O)Nc1cc(Nc2cc(N3OCCC3c3cccc4c3cnn4C)ncn2)c(OC)cc1N1CCC(N2CCN(C3CC3)CC2)CC1 (centres unmarked) [Compound 126] | < 50 | – | –

Continued, values first:

Row | GI50 [1] [nM] | GI50 [2] [nM] | GI50 [3] [nM] | SMILES
13 | < 50 | – | < 50 | C=CC(=O)Nc1cc(Nc2cc(N3OCC[C@@H]3c3ccc(F)c(C(F)(F)F)c3)ncn2)c(OC)cc1N1CCC(N2CCO[C@@H](C)C2)CC1 [Compound 58]
14 | < 50 | – | < 50 | C=CC(=O)Nc1cc(Nc2cc(N3OCC[C@@H]3c3cccc(C(F)(F)F)c3F)ncn2)c(OC)cc1N1CCC(N2CCN(C3CC3)CC2)CC1 [Compound 62]
15 | < 50 | – | < 50 | C=CC(=O)Nc1cc(Nc2cc(N3OCC[C@@H]3c3cccc(C(F)(F)F)c3F)ncn2)c(OC)cc1N1CCN(C)CC1 [Compound 60]
16 | < 50 | < 50 | < 50 | C=CC(=O)Nc1cc(Nc2cc(N3OCC[C@@H]3c3ccc(F)c(C(F)(F)F)c3)ncn2)c(OC)cc1N1CCN(CCC)CC1 [Compound 55]
17 | < 50 | – | 50 to 500 | C=CC(=O)Nc1cc(Nc2cc(N3OCC[C@@H]3c3cc(F)cc(C(F)(F)F)c3)ncn2)c(OC)cc1N1CCC(N2CCN(C3CC3)CC2)CC1 [Compound 1]
18 | 50 to 500 | – | – | C=CC(=O)Nc1cc(Nc2cc(N3OCC[C@@H]3c3ccc(Cl)c(C(F)(F)F)c3)ncn2)c(OC)cc1N1CCN(C)CC1 [Compound 32]
19 | 50 to 500 | – | – | C=CC(=O)Nc1cc(Nc2cc(N3OCC[C@@H]3c3ccc(F)c(C(F)(F)F)c3)ncn2)c(OC)cc1N1CCOCC1 [Compound 63]
20 | 50 to 500 | – | – | C=CC(=O)Nc1cc(Nc2cc(N3OCC[C@@H]3c3cccc(C(F)(F)F)c3)ncn2)c(OC)cc1N1C[C@@H]2C[C@H]1CO2 [Compound 30]
21 | < 50 | – | – | C=CCN1CCN(c2cc(OC)c(Nc3cc(N4OCC[C@@H]4c4cccc(C(F)(F)F)c4)ncn3)cc2NC(=O)C=C)CC1 [Compound 24]
22 | < 50 | – | – | C=CC(=O)Nc1cc(Nc2cc(N3OCC[C@@H]3c3ccc(F)c(C(F)(F)F)c3)ncn2)c(OC)cc1N1CCC(N2CCC2)CC1 [Compound 48]
23 | 50 to 500 | – | – | C=CC(=O)Nc1cc(Nc2cc(N3OCC[C@@H]3c3ccc(F)c(C(F)(F)F)c3)ncn2)c(OC)cc1N1CCO[C@@H](C)C1 [Compound 56]
24 | 50 to 500 | – | – | C=CC(=O)Nc1cc(Nc2cc(N3OCC[C@@H]3c3cc(F)cc(C(F)(F)F)c3)ncn2)c(OC)cc1N1CCN(C)[C@H](C)C1 [Compound 11]
25 | < 50 | – | – | C=CC(=O)Nc1cc(Nc2cc(N3OCC[C@@H]3c3ccc(F)c(C(F)(F)F)c3)ncn2)c(OC)cc1N1CCN(C(C)=O)CC1 [Compound 46]
26 | < 50 | – | < 50 | C=CC(=O)Nc1cc(Nc2cc(N3OCC[C@@H]3c3ccc(F)c(C(F)(F)F)c3)ncn2)c(OC)cc1N1CCN(C)CC1 [Compound 37]
27 | 50 to 500 | – | – | C=CC(=O)Nc1cc(Nc2cc(N3OCC[C@@H]3c3cc(F)cc(C(F)(F)F)c3)ncn2)c(OC)cc1N1CCN(C)[C@@H](C)C1 [Compound 12]
28 | < 50 | – | – | C=CC(=O)Nc1cc(Nc2cc(N3OCC[C@@H]3c3ccc(F)c(C(F)(F)F)c3)ncn2)c(OC)cc1N1CCN(C)[C@@H](C)C1 [Compound 44]
